Experimental data as given in ChEMBL document CHEMBL1201862, “PubChem BioAssay data set” (2004).
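Interpolation was linear, between the two tested concentrations surrounding the appropriate level; five concentrations were tested over 48 hours in 96-well plates. The concentration for 50% growth inhibition is given as GI50.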 Active and inactive are the calls of the source. No stated cut-off is given here; in the data, active = GI50 up to about 1.1 µM and inactive = higher.

Experiments:
Assay in all cases: DTP human tumour cell line panel, 48 h
EKVX = test system: EKVX
SNB-19 = test system: SNB-19
HCC 2998 = test system: HCC 2998
SNB-78 = test system: SNB-78
IGROV-1 = test system: IGROV-1
NCI-H226 = test system: NCI-H226
SW-620 = test system: SW-620
HT-29 = test system: HT-29
COLO 205 = test system: COLO 205
OVCAR-3 = test system: OVCAR-3
U-251 = test system: U-251
SF-268 = test system: SF-268
RPMI-8226 = test system: RPMI-8226
M14 = test system: M14
HOP-18 = test system: HOP-18
DMS-114 = test system: DMS-114
SF-295 = test system: SF-295
LXFL 529 = test system: LXFL 529
DMS-273 = test system: DMS-273
NCI-H522 = test system: NCI-H522
UACC-62 = test system: UACC-62
HCT-15 = test system: HCT-15
OVCAR-5 = test system: OVCAR-5
A549 = test system: A549
OVCAR-8 = test system: OVCAR-8
KM-20L2 = test system: KM-20L2
SNB-75 = test system: SNB-75
786-0 = test system: 786-0
K562 = test system: K562
SK-MEL-5 = test system: SK-MEL-5
CAKI-1 = test system: CAKI-1
MOLT-4 = test system: MOLT-4
Malme-3M = test system: Malme-3M
NCI-H460 = test system: NCI-H460
OVCAR-4 = test system: OVCAR-4
ACHN = test system: ACHN
HOP-62 = test system: HOP-62
SF-539 = test system: SF-539
HCT-116 = test system: HCT-116
SK-MEL-2 = test system: SK-MEL-2
TK-10 = test system: TK-10
HOP-92 = test system: HOP-92
DLD-1 = test system: DLD-1
UACC-257 = test system: UACC-257
HL-60 = test system: HL-60
KM12 = test system: KM12
SN12C = test system: SN12C
RXF 631 = test system: RXF 631
NCI-H23 = test system: NCI-H23
LOX IMVI = test system: LOX IMVI
A498 = test system: A498
UO-31 = test system: UO-31
RXF 393 = test system: RXF 393
SK-OV-3 = test system: SK-OV-3
CCRF-CEM = test system: CCRF-CEM
M19-MEL = test system: M19-MEL
SK-MEL-28 = test system: SK-MEL-28

Compound: COC(=O)C1C(O)CC(c2ccccn2)N(Cc2ccccc2)C1c1ccccn1 (centres undefined)
- GI50 (EKVX): > 100 µM (inactive)
- GI50 (SNB-19): > 100 µM (inactive)
- GI50 (HCC 2998): > 100 µM (inactive)
- GI50 (SNB-78): > 100 µM (inactive)
- GI50 (IGROV-1): > 100 µM (inactive)
- GI50 (NCI-H226): > 100 µM (inactive)
- GI50 (SW-620): > 100 µM (inactive)
- GI50 (HT-29): > 100 µM (inactive)
- GI50 (COLO 205): > 100 µM (inactive)
- GI50 (OVCAR-3): > 100 µM (inactive)
- GI50 (U-251): > 100 µM (inactive)
- GI50 (SF-268): > 100 µM (inactive)
- GI50 (RPMI-8226): 23.4 µM (inactive)
- GI50 (M14): > 100 µM (inactive)
- GI50 (HOP-18): > 100 µM (inactive)
- GI50 (DMS-114): > 100 µM (inactive)
- GI50 (SF-295): > 100 µM (inactive)
- GI50 (LXFL 529): > 100 µM (inactive)
- GI50 (DMS-273): > 100 µM (inactive)
- GI50 (NCI-H522): > 100 µM (inactive)
- GI50 (UACC-62): > 100 µM (inactive)
- GI50 (HCT-15): > 100 µM
- GI50 (OVCAR-5): > 100 µM (inactive)
- GI50 (A549): > 100 µM (inactive)
- GI50 (OVCAR-8): > 100 µM (inactive)
- GI50 (KM-20L2): > 100 µM (inactive)
- GI50 (SNB-75): > 100 µM (inactive)
- GI50 (786-0): > 100 µM (inactive)
- GI50 (K562): 44.4 µM (inactive)
- GI50 (SK-MEL-5): 84.3 µM (inactive)
- GI50 (CAKI-1): > 100 µM (inactive)
- GI50 (MOLT-4): 37.6 µM (inactive)
- GI50 (Malme-3M): > 100 µM (inactive)
- GI50 (NCI-H460): > 100 µM (inactive)
- GI50 (OVCAR-4): > 100 µM (inactive)
- GI50 (ACHN): > 100 µM (inactive)
- GI50 (HOP-62): > 100 µM (inactive)
- GI50 (SF-539): > 100 µM (inactive)
- GI50 (HCT-116): 94.4 µM (inactive)
- GI50 (SK-MEL-2): > 100 µM (inactive)
- GI50 (TK-10): > 100 µM (inactive)
- GI50 (HOP-92): > 100 µM (inactive)
- GI50 (DLD-1): > 100 µM (inactive)
- GI50 (UACC-257): > 100 µM (inactive)
- GI50 (HL-60): 15.6 µM (inactive)
- GI50 (KM12): > 100 µM (inactive)
- GI50 (SN12C): > 100 µM (inactive)
- GI50 (RXF 631): > 100 µM (inactive)
- GI50 (NCI-H23): > 100 µM (inactive)
- GI50 (LOX IMVI): > 100 µM (inactive)
- GI50 (A498): > 100 µM (inactive)
- GI50 (UO-31): > 100 µM (inactive)
- GI50 (RXF 393): > 100 µM (inactive)
- GI50 (SK-OV-3): > 100 µM (inactive)
- GI50 (CCRF-CEM): > 100 µM (inactive)
- GI50 (M19-MEL): > 100 µM (inactive)
- GI50 (SK-MEL-28): > 100 µM (inactive)

Compound: O=C(CC(=O)N1N=C(n2ccc3ccccc32)CC1c1ccccc1)Nc1ccccc1Cl (centres undefined)
- GI50 (EKVX): > 100 µM (inactive)
- GI50 (SNB-19): > 100 µM (inactive)
- GI50 (HCC 2998): > 100 µM (inactive)
- GI50 (SNB-78): > 100 µM (inactive)
- GI50 (IGROV-1): > 100 µM (inactive)
- GI50 (SW-620): > 100 µM (inactive)
- GI50 (HT-29): > 100 µM (inactive)
- GI50 (COLO 205): > 100 µM (inactive)
- GI50 (OVCAR-3): > 100 µM (inactive)
- GI50 (U-251): > 100 µM (inactive)
- GI50 (SF-268): > 100 µM (inactive)
- GI50 (RPMI-8226): > 100 µM (inactive)
- GI50 (M14): > 100 µM (inactive)
- GI50 (HOP-18): > 100 µM (inactive)
- GI50 (DMS-114): > 100 µM (inactive)
- GI50 (SF-295): > 100 µM (inactive)
- GI50 (LXFL 529): > 100 µM (inactive)
- GI50 (DMS-273): > 100 µM (inactive)
- GI50 (NCI-H522): > 100 µM (inactive)
- GI50 (UACC-62): > 100 µM (inactive)
- GI50 (HCT-15): > 100 µM
- GI50 (A549): > 100 µM (inactive)
- GI50 (OVCAR-8): > 100 µM (inactive)
- GI50 (KM-20L2): > 100 µM (inactive)
- GI50 (SNB-75): > 100 µM (inactive)
- GI50 (786-0): > 100 µM (inactive)
- GI50 (K562): > 100 µM (inactive)
- GI50 (MOLT-4): > 100 µM (inactive)
- GI50 (Malme-3M): > 100 µM (inactive)
- GI50 (NCI-H460): > 100 µM (inactive)
- GI50 (OVCAR-4): > 100 µM (inactive)
- GI50 (ACHN): > 100 µM (inactive)
- GI50 (HOP-62): > 100 µM (inactive)
- GI50 (SF-539): > 100 µM (inactive)
- GI50 (HCT-116): > 100 µM (inactive)
- GI50 (SK-MEL-2): > 100 µM (inactive)
- GI50 (TK-10): > 100 µM (inactive)
- GI50 (HOP-92): 32.3 µM (inactive)
- GI50 (UACC-257): > 100 µM (inactive)
- GI50 (HL-60): > 100 µM (inactive)
- GI50 (KM12): > 100 µM (inactive)
- GI50 (SN12C): > 100 µM (inactive)
- GI50 (RXF 631): > 100 µM (inactive)
- GI50 (NCI-H23): > 100 µM (inactive)
- GI50 (LOX IMVI): > 100 µM (inactive)
- GI50 (A498): > 100 µM (inactive)
- GI50 (UO-31): > 100 µM (inactive)
- GI50 (RXF 393): > 100 µM (inactive)
- GI50 (SK-OV-3): > 100 µM (inactive)
- GI50 (CCRF-CEM): > 100 µM (inactive)
- GI50 (M19-MEL): > 100 µM (inactive)
- GI50 (SK-MEL-28): > 100 µM (inactive)
